From US20260183302A1, “PDK1 REGULATORY COMPOUND AND COMPOSITION CONTAINING THE SAME” (PROVIBIO CO., LTD., priority 2024, published 2026) come the findings set out here.

The subject of series [1] is Human Colorectal Carcinoma cell line, HCT-116. In words: Relative cell viability, HCT-116 (CCK-8). Format: cell-based. As to conditions: 48 hours. As for the experimental part: (§1) Human-derived breast cancer cell line MCF-7, human-derived lung cancer cell line A549, human-derived colorectal cancer cell line HCT-116, human pancreatic cancer cell line AsPC-1, glioblastoma cell line A172, and melanoma cell line Malme-3M were obtained from the Korean Cell Bank. gastric cancer cell line SNU-719, and bladder cancer cell line T24 were cultured in RPMI-1640 medium containing 10% FBS.
(§2) Following stabilization, the cells were harvested using Trypsin-EDTA treatment, centrifuged at 1,200 rpm for 3 minutes, the supernatant was removed, and the cells were resuspended in the same medium. They were then seeded into a 96-well plate (Costar 96-well cell culture plate, Corning) at 100 μL per well, and the conditions were adjusted as indicated in Table 5.
(§3) The cells were cultured in a 5% CO2 incubator at 37° C. for 24 hours, and after stabilization of the cells, each plate was washed with 200 μL of PBS per well and treated with 50 μL of culture medium per well.
(§4) After that, 10 μL of CCK-8 was added to each well, and the plate was incubated again at 37° C. in a 5% CO2 incubator for 2 hours.
(§5) In other words, when the survival rate of untreated cells (DMSO) is set at 100%, the relative cell survival rate in each group treated with the drug at different concentrations is indicated.

The subject of series [2] is Human Melanoma cancer cell, Malme-3M. In words: Relative cell viability, Malme-3M (CCK-8). The format is cell-based. As to conditions: 48 hours. As for the experimental part:
as §1, §2, §3, §4, §5

The test system of series [3] is Human Osteosarcoma, Saos-2. In words: Relative cell viability, Saos-2 (CCK-8). Format: cell-based. As for the experimental part:
Human-derived head and neck cancer cell line Fadu and osteosarcoma cell line Saos-2 were cultured in MEM medium containing 10% FBS, 100 U/mL penicillin, and 100 μg/mL streptomycin.
as §2
The cells were cultured in a 5% CO2 incubator at 37° C. for 24 hours, and after stabilization of the cells, each plate was washed with 200 μL of PBS per well and treated with 50 μL of culture medium per well. […]
as §4, §5

The test system of series [4] is human lung fibroblasts MRC-5. In words: TGF-β induced Collagen I expression in MRC-5 cells (Western blot). Format: cell-based. The settings on record: MRC-5, TGF-β (5 ng/ml), 0.5 μM and 1 μM, 24 hours. As for the experimental part:
To confirm that the compound of the present invention directly acts on fibrosis-related mechanisms, in vitro experiments were performed using human lung fibroblasts MRC-5 cell lines (Korea Cell Bank).
First, MRC-5 cells were seeded at 5×10^3 cells per well in a 6-well plate and stabilized for 24 hours.
Subsequently, experimental groups were established, including a control group, a group treated with TGF-β (5 ng/ml) alone, and groups treated with TGF-β and the compound GO88 from the present invention at concentrations of 0.5 μM and 1 μM, respectively.
After treating each group with the drugs for 24 hours, the cell medium was removed, and the cells were washed twice with cold PBS. Then, RIPA lysis buffer containing phosphatase inhibitor and protease inhibitor was added to each group to extract proteins.
The extracted proteins were incubated at 4° C. for 30 minutes, then centrifuged at 13,000 rpm for 15 minutes, and the supernatant was collected. The total protein concentration was measured using the BCA protein quantification method.
Subsequently, the proteins were separated by SDS-PAGE, transferred to a PVDF membrane, and Western blot analysis was performed.
The expression levels of Collagen I, a marker related to pulmonary fibrosis, were confirmed, with GAPDH used as an internal control.
(Immunoblotting shows a protein as a band on a membrane.)

Series [5] deals with T1, full-length PDK1 (PDK1-FL) (Homo sapiens, UniProt O15530).
T1 construct: the full-length (PDK1-FL) protein of human-derived PDK1; His tag (inferred by me from the Ni-NTA purification); made in house; host or cells: Sf9 insect cells, baculovirus
T1 sequence (O15530 1-556): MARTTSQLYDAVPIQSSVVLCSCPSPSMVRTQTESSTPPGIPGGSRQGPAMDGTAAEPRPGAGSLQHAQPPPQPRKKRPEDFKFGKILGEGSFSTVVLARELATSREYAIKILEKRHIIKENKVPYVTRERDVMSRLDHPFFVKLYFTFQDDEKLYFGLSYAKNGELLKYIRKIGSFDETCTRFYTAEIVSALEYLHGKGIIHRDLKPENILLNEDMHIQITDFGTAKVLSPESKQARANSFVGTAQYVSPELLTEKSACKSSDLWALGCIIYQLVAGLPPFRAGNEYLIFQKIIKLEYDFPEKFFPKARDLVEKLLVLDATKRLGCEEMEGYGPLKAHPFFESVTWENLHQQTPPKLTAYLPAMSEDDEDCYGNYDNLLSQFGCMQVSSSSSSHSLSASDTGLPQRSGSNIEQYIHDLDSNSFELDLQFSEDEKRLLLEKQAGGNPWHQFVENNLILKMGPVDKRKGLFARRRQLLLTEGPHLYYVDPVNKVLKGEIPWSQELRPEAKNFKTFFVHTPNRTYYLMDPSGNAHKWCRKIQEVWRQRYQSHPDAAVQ
Description: Binding affinity by Microscale Thermophoresis (MST), full-length PDK1. As to conditions: Kd full-length vs PKD fragment. As for the experimental part: Microscale Thermophoresis (MST) analysis was performed to quantitatively measure the binding affinity between PDK1 protein and substrate peptides (PDKTide) or the company-developed low-molecular-weight compound (GO88).
The target proteins were the full-length (PDK1-FL) protein of human-derived PDK1 and the Protein Kinase Domain (PKD) fragment, which were expressed using a baculovirus expression system in insect cell lines (Sf9).
The purity of the purified proteins was confirmed by SDS-PAGE and Coomassie Brilliant Blue staining.
The purified protein was labeled with a fluorescent label using the Monolith NT™ RED-NHS Protein Fluorescent Labeling Kit (NanoTemper).
Specifically, 20 µM of the protein was dissolved in PBS (pH 7.4) buffer, mixed with the fluorescent reagent, and reacted at room temperature under dark conditions for 30 minutes. The mixture was then buffered with MST analysis buffer (50 mM HEPES, 150 mM NaCl, 1 mM DTT, 0.05% Tween-20, pH 7.5). […]
The reaction samples were injected into an MST-specific capillary (NanoTemper) and analyzed using a Monolith NT.115 device (NanoTemper) under laser intensity conditions. […]
The measured data were analyzed using MO. Affinity Analysis software (NanoTemper), and the dissociation constant (Kd) was calculated from the binding curve.

Turning to “12-[4-(2,2-dimethylmorpholin-4-yl)]dodecyl-N-(6-aminopurine-2-yl) carboxamide [Compound 11]”, the “Relative cell viability (%)” value in series [1] (HCT-116, 1 μM) was 21.36%; in series [1] (HCT-116, 10 μM), 24.91%; in series [1] (HCT-116, 30 μM) it was 24.78%; in series [1] (HCT-116, 50 μM), 25.26%; in series [2] (1 μM) it was 44.06%; in series [2] (10 μM), 37.40%. Moreover, the “Relative cell viability (%)” value in series [2] (30 μM) was found to be 36.80%; in series [2] (50 μM) it was 38.87%; in series [3] (Saos-2, 10 μM, 48 hours), 24.98%; in series [3] (Saos-2, 30 μM, 48 hours) it was 16.00%; in series [3] (Saos-2, 50 μM, 48 hours) it was 36.73%; in series [3] (Saos-2, 48 hours), 36.73%.

Turning to `Nc1ncccc1C(=O)NCCCCCCCCCCCCN1CCNCC1` [Compound 14, 2-Amino-N-(12-(piperazin-1-yl)dodecyl)nicotinamide], the “protein expression of Collagen I” value in series [4] is “inhibited in a concentration-dependent manner”. Further, the “binding affinity of full-length PDK1 compared to the PDK fragment” value in series [5] was “approximately six times stronger”.
